Measured values from patent US20260206755A1, “COMPOUNDS AND COMPOSITIONS HAVING KNOCK-DOWN OR BLOOD FEED INHIBITION ACTIVITY AGAINST INSECT PESTS” (priority 2017, published 2026).

What follows are molecules tested on Anopheles stephensi (assay: Anopheles stephensi treated well plate contact test: knockdown and mortality). Conditions: Anopheles stephensi, 24 h, read-out: mortality % 24, without TFNA-AM.
Type: in vivo
How it was run: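 Well surfaces coated with ethanol solution of compound at a defined concentration, alone or with 2 ppm TFNA-AM, then dried. Five non-blood-fed 2–5-day-old adult females per well, fed 10% sucrose; knockdown scored at 1 hour, mortality at 24 and 48 hours, replicate means reported.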

| SMILES | mortality at 0.02 ppm | mortality at 0.2 ppm | mortality at 2 ppm | mortality at 20 ppm |
| --- | --- | --- | --- | --- |
| CCOC(=O)CC(SP(=S)(OC)OC)C(=O)OCC (stereo not drawn) [Malathion] | 0% | 0% | 100% | 100% |
| CNC(=O)Oc1ccccc1OC(C)C [Propoxur] | 0% | 100% | 100% | 100% |

Same assay, conditions: Anopheles stephensi, 48 h, read-out: mortality % 48, without TFNA-AM

| SMILES | mortality at 0.02 ppm | mortality at 0.2 ppm | mortality at 2 ppm | mortality at 20 ppm |
| --- | --- | --- | --- | --- |
| CCOC(=O)CC(SP(=S)(OC)OC)C(=O)OCC (stereo not drawn) [Malathion] | 0% | 0% | 100% | 100% |
| CNC(=O)Oc1ccccc1OC(C)C [Propoxur] | 0% | 100% | 100% | 100% |

Same assay, conditions: Anopheles stephensi; test compound 0.02 ppm, without TFNA-AM, knockdown after 1 hour; read-out: Knock Down, without TFNA-AM

| SMILES | pest or weed control at 0.02 ppm |
| --- | --- |
| CCOC(=O)CC(SP(=S)(OC)OC)C(=O)OCC (stereo not drawn) [Malathion] | 20% |
| CNC(=O)Oc1ccccc1OC(C)C [Propoxur] | 0% |

Same assay, conditions: Anopheles stephensi; test compound 0.2 ppm, without TFNA-AM, knockdown after 1 hour; read-out: Knock Down, without TFNA-AM

| SMILES | pest or weed control at 0.2 ppm |
| --- | --- |
| CCOC(=O)CC(SP(=S)(OC)OC)C(=O)OCC (stereo not drawn) [Malathion] | 20% |
| CNC(=O)Oc1ccccc1OC(C)C [Propoxur] | 0% |

Same assay, conditions: Anopheles stephensi; test compound 2 ppm, without TFNA-AM, knockdown after 1 hour; read-out: Knock Down, without TFNA-AM

| SMILES | pest or weed control at 2 ppm |
| --- | --- |
| CCOC(=O)CC(SP(=S)(OC)OC)C(=O)OCC (stereo not drawn) [Malathion] | 40% |
| CNC(=O)Oc1ccccc1OC(C)C [Propoxur] | 100% |

Same assay, conditions: Anopheles stephensi; test compound 20 ppm, without TFNA-AM, knockdown after 1 hour; read-out: Knock Down, without TFNA-AM

| SMILES | pest or weed control at 20 ppm |
| --- | --- |
| CCOC(=O)CC(SP(=S)(OC)OC)C(=O)OCC (stereo not drawn) [Malathion] | 40% |
| CNC(=O)Oc1ccccc1OC(C)C [Propoxur] | 100% |

Same assay, conditions: test compound 0.02 ppm plus 2 ppm TFNA-AM, after 24 hours

| SMILES | mortality % 24, with TFNA-AM |
| --- | --- |
| CCOC(=O)CC(SP(=S)(OC)OC)C(=O)OCC (stereo not drawn) [Malathion] | 0% |
| CNC(=O)Oc1ccccc1OC(C)C [Propoxur] | 40% |

Same assay, conditions: test compound 0.02 ppm plus 2 ppm TFNA-AM, after 48 hours

| SMILES | mortality % 48, with TFNA-AM |
| --- | --- |
| CCOC(=O)CC(SP(=S)(OC)OC)C(=O)OCC (stereo not drawn) [Malathion] | 0% |
| CNC(=O)Oc1ccccc1OC(C)C [Propoxur] | 40% |

Same assay, conditions: test compound 0.02 ppm plus 2 ppm TFNA-AM, knockdown after 1 hour

| SMILES | Knock Down, with TFNA-AM |
| --- | --- |
| CCOC(=O)CC(SP(=S)(OC)OC)C(=O)OCC (stereo not drawn) [Malathion] | 100% |
| CNC(=O)Oc1ccccc1OC(C)C [Propoxur] | 100% |

Same assay, conditions: test compound 0.2 ppm plus 2 ppm TFNA-AM, after 24 hours

| SMILES | mortality % 24, with TFNA-AM |
| --- | --- |
| CCOC(=O)CC(SP(=S)(OC)OC)C(=O)OCC (stereo not drawn) [Malathion] | 0% |
| CNC(=O)Oc1ccccc1OC(C)C [Propoxur] | 100% |

Same assay, conditions: test compound 0.2 ppm plus 2 ppm TFNA-AM, after 48 hours

| SMILES | mortality % 48, with TFNA-AM |
| --- | --- |
| CCOC(=O)CC(SP(=S)(OC)OC)C(=O)OCC (stereo not drawn) [Malathion] | 0% |
| CNC(=O)Oc1ccccc1OC(C)C [Propoxur] | 100% |

Same assay, conditions: test compound 0.2 ppm plus 2 ppm TFNA-AM, knockdown after 1 hour

| SMILES | Knock Down, with TFNA-AM |
| --- | --- |
| CCOC(=O)CC(SP(=S)(OC)OC)C(=O)OCC (stereo not drawn) [Malathion] | 100% |
| CNC(=O)Oc1ccccc1OC(C)C [Propoxur] | 100% |

Same assay, conditions: test compound 2 ppm plus 2 ppm TFNA-AM, after 24 hours

| SMILES | mortality % 24, with TFNA-AM |
| --- | --- |
| CCOC(=O)CC(SP(=S)(OC)OC)C(=O)OCC (stereo not drawn) [Malathion] | 100% |
| CNC(=O)Oc1ccccc1OC(C)C [Propoxur] | 100% |

Same assay, conditions: test compound 2 ppm plus 2 ppm TFNA-AM, after 48 hours

| SMILES | mortality % 48, with TFNA-AM |
| --- | --- |
| CCOC(=O)CC(SP(=S)(OC)OC)C(=O)OCC (stereo not drawn) [Malathion] | 100% |
| CNC(=O)Oc1ccccc1OC(C)C [Propoxur] | 100% |

Same assay, conditions: test compound 2 ppm plus 2 ppm TFNA-AM, knockdown after 1 hour

| SMILES | Knock Down, with TFNA-AM |
| --- | --- |
| CCOC(=O)CC(SP(=S)(OC)OC)C(=O)OCC (stereo not drawn) [Malathion] | 100% |
| CNC(=O)Oc1ccccc1OC(C)C [Propoxur] | 100% |

Same assay, conditions: test compound 20 ppm plus 2 ppm TFNA-AM, after 24 hours

| SMILES | mortality % 24, with TFNA-AM |
| --- | --- |
| CCOC(=O)CC(SP(=S)(OC)OC)C(=O)OCC (stereo not drawn) [Malathion] | 100% |
| CNC(=O)Oc1ccccc1OC(C)C [Propoxur] | 100% |

Same assay, conditions: test compound 20 ppm plus 2 ppm TFNA-AM, after 48 hours

| SMILES | mortality % 48, with TFNA-AM |
| --- | --- |
| CCOC(=O)CC(SP(=S)(OC)OC)C(=O)OCC (stereo not drawn) [Malathion] | 100% |
| CNC(=O)Oc1ccccc1OC(C)C [Propoxur] | 100% |

Same assay, conditions: test compound 20 ppm plus 2 ppm TFNA-AM, knockdown after 1 hour

| SMILES | Knock Down, with TFNA-AM |
| --- | --- |
| CCOC(=O)CC(SP(=S)(OC)OC)C(=O)OCC (stereo not drawn) [Malathion] | 100% |
| CNC(=O)Oc1ccccc1OC(C)C [Propoxur] | 100% |
